Laboratory results: publication PMC3814616, “BRAF inhibitors suppress apoptosis through off-target inhibition of JNK signaling” (eLife, 2013)
Like-named read-outs stand apart in the source and are kept apart here.

Key:
MINK (MINK1) = target: T1, MINK (MINK1) (Homo sapiens, UniProt Q8N4C8); test: Quantitative competitive binding assay (KINOMEscan); details: for remaining binding at 0.05 µM: read-out: Percent control (50 nM); for remaining binding at 0.2 µM: read-out: Percent control (200 nM); for remaining binding at 1 µM: read-out: Percent control (1000 nM); for remaining binding at 10 µM: read-out: Percent control (10 μM)
T1 construct: purchased KINOMEscan (DiscoveRx), San Diego, CA

MLK2 (MAP3K10) = target: T2, MLK2 (MAP3K10) (Homo sapiens, UniProt Q02779); test: as above; details: for remaining binding at 0.05 µM: read-out: Percent control (50 nM); for remaining binding at 0.2 µM: read-out: Percent control (200 nM); for remaining binding at 10 µM: read-out: Percent control (10 μM)
T2 construct: purchased KINOMEscan (DiscoveRx), San Diego, CA

NOXA = test: Western blot, UV-induced NOXA expression; type: cell-based, human; details: 1 μM
MAP3K15 = target: T3, MAP3K15 (Homo sapiens, UniProt Q6ZN16); test: Quantitative competitive binding assay (KINOMEscan); details: for remaining binding at 0.05 µM: read-out: Percent control (50 nM); for remaining binding at 0.2 µM: read-out: Percent control (200 nM); for remaining binding at 1 µM: read-out: Percent control (1000 nM); for remaining binding at 10 µM: read-out: Percent control (10 μM)
T3 construct: purchased KINOMEscan (DiscoveRx), San Diego, CA
T3 sequence (Q6ZN16 1-1313): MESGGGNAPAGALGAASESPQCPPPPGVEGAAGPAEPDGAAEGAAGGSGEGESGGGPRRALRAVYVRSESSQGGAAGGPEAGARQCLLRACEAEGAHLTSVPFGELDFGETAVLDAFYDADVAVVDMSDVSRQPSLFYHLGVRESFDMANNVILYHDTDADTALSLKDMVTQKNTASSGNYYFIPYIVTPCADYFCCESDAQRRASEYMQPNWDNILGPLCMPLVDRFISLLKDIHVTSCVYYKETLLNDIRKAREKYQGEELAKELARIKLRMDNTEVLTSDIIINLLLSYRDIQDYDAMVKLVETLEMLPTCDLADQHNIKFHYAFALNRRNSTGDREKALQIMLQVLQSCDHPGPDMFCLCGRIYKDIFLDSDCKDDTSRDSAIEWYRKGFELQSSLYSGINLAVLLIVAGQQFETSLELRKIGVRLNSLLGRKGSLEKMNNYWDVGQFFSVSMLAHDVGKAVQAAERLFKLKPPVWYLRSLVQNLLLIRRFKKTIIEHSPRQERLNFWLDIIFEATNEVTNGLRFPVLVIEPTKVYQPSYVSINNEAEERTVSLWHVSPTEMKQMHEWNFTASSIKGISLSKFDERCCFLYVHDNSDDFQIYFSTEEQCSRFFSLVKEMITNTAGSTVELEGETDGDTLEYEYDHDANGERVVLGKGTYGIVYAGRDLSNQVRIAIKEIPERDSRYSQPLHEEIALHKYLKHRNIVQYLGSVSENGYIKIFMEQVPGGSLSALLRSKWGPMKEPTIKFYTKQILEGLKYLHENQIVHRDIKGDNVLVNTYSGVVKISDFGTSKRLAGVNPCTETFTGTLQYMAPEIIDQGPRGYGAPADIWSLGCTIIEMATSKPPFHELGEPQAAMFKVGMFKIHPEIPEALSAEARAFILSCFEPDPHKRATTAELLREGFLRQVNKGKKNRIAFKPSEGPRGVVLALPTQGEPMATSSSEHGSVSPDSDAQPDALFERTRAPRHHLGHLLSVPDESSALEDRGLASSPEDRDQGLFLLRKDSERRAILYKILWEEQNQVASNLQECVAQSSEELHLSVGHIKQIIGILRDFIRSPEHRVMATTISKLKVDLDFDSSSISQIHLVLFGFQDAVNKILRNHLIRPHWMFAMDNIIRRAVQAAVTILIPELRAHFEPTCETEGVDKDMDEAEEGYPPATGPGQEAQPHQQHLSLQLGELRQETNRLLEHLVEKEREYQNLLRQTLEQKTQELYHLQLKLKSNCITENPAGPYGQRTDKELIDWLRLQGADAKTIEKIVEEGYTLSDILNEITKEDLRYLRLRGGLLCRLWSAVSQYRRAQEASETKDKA

JNK and p38 isoforms = test system: JNK and p38 isoforms; set-up: method as in Tsai et al., 2008; Bollag et al., 2010; details: ref Tsai et al., 2008; Bollag et al., 2010; cited from earlier work
PAK1 = target: T4, PAK1 (Homo sapiens, UniProt Q13153); test: Quantitative competitive binding assay (KINOMEscan); details: for remaining binding at 0.05 µM: read-out: Percent control (50 nM); for remaining binding at 0.2 µM: read-out: Percent control (200 nM); for remaining binding at 1 µM: read-out: Percent control (1000 nM); for remaining binding at 10 µM: read-out: Percent control (10 μM)
T4 construct: purchased KINOMEscan (DiscoveRx), San Diego, CA

MAP3K1 = target: T5, MAP3K1 (Homo sapiens, UniProt Q13233); test: as above; details: for remaining binding at 0.05 µM: read-out: Percent control (50 nM); for remaining binding at 0.2 µM: read-out: Percent control (200 nM); for remaining binding at 1 µM: read-out: Percent control (1000 nM); for remaining binding at 10 µM: read-out: Percent control (10 μM)
T5 construct: purchased KINOMEscan (DiscoveRx), San Diego, CA

MAP3K2 = target: T6, MAP3K2 (Homo sapiens, UniProt Q9Y2U5); test: as above; details: for remaining binding at 0.05 µM: read-out: Percent control (50 nM); for remaining binding at 0.2 µM: read-out: Percent control (200 nM); for remaining binding at 1 µM: read-out: Percent control (1000 nM); for remaining binding at 10 µM: read-out: Percent control (10 μM)
T6 construct: purchased KINOMEscan (DiscoveRx), San Diego, CA
T6 sequence (Q9Y2U5 1-619): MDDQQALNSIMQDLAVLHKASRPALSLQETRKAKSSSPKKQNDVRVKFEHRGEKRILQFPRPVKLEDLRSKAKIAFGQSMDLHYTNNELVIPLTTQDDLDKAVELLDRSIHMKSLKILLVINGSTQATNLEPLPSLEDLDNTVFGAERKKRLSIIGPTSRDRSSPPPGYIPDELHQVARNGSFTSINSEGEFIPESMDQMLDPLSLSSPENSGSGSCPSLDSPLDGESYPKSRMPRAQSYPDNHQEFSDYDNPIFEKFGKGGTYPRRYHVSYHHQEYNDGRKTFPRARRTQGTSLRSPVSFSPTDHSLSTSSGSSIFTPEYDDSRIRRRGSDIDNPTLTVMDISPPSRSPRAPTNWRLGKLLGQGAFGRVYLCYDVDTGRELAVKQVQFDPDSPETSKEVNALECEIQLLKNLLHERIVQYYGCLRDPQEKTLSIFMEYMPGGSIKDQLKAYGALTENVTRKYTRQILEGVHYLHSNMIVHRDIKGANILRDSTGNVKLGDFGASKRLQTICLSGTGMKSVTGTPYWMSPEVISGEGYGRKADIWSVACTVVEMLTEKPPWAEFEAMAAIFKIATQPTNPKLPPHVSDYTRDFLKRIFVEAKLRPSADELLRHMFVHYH

BRK (PTK6) = BRK (PTK6) (Homo sapiens, UniProt Q13882); test: as above; details: for IC50: estimated Kd, averaged pointwise estimates, transformed Hill equation, read-out: Calculated estimate of IC50; for remaining binding at 0.05 µM: read-out: Percent control (50 nM); for remaining binding at 0.2 µM: read-out: Percent control (200 nM); for remaining binding at 1 µM: read-out: Percent control (1000 nM); for remaining binding at 10 µM: read-out: Percent control (10 μM)
MLK1 (MAP3K9) = target: T7, MLK1 (MAP3K9) (Homo sapiens, UniProt P80192); details: read-out: Published biochemical IC50, cited from earlier work
T7 construct: purchased KINOMEscan (DiscoveRx), San Diego, CA

BRK (PTK6), sequence (Q13882 whole entry): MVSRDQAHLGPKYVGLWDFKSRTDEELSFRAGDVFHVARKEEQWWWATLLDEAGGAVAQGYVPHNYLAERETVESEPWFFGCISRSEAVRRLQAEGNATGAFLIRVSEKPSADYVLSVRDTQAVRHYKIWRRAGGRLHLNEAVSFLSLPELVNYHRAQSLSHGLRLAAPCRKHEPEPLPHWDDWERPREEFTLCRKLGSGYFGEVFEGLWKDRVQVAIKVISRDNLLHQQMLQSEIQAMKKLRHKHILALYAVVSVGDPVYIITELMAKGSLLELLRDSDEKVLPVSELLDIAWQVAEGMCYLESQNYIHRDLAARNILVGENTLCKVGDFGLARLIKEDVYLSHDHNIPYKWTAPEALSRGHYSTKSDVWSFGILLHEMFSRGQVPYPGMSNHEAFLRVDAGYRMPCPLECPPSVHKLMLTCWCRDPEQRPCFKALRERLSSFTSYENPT
T1 sequence (Q8N4C8 whole entry): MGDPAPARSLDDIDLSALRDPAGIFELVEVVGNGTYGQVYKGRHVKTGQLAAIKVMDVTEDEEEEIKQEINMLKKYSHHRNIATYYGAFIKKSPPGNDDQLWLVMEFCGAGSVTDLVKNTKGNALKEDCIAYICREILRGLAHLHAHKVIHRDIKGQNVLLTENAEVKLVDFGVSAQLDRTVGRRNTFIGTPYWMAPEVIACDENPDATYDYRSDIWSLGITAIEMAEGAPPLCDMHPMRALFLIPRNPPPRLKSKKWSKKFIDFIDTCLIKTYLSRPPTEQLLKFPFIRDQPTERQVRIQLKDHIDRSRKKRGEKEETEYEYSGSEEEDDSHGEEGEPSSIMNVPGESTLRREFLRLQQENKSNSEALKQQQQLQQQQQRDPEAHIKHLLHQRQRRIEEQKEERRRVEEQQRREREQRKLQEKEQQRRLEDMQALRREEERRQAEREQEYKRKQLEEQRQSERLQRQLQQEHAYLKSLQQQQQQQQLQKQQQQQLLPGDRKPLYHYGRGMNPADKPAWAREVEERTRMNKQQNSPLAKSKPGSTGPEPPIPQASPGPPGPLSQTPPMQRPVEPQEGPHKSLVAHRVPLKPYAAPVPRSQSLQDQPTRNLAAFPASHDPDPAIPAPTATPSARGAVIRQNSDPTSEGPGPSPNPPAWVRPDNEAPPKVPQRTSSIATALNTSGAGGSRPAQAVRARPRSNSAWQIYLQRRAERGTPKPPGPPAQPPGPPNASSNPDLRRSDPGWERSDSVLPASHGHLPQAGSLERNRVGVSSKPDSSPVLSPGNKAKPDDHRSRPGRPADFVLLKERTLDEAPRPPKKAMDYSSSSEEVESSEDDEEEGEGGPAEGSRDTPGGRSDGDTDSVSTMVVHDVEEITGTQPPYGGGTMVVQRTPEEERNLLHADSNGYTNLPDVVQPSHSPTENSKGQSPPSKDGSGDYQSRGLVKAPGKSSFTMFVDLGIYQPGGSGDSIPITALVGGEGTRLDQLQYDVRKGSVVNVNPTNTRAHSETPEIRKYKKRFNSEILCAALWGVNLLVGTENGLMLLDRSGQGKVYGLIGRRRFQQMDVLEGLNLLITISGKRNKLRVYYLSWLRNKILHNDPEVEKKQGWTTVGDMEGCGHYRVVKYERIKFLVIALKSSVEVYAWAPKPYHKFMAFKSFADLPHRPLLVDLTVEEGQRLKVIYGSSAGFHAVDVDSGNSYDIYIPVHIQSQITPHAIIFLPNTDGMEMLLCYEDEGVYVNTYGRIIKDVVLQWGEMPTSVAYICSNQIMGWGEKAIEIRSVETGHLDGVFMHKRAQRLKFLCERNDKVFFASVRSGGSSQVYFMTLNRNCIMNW
T5 sequence (Q13233 whole entry): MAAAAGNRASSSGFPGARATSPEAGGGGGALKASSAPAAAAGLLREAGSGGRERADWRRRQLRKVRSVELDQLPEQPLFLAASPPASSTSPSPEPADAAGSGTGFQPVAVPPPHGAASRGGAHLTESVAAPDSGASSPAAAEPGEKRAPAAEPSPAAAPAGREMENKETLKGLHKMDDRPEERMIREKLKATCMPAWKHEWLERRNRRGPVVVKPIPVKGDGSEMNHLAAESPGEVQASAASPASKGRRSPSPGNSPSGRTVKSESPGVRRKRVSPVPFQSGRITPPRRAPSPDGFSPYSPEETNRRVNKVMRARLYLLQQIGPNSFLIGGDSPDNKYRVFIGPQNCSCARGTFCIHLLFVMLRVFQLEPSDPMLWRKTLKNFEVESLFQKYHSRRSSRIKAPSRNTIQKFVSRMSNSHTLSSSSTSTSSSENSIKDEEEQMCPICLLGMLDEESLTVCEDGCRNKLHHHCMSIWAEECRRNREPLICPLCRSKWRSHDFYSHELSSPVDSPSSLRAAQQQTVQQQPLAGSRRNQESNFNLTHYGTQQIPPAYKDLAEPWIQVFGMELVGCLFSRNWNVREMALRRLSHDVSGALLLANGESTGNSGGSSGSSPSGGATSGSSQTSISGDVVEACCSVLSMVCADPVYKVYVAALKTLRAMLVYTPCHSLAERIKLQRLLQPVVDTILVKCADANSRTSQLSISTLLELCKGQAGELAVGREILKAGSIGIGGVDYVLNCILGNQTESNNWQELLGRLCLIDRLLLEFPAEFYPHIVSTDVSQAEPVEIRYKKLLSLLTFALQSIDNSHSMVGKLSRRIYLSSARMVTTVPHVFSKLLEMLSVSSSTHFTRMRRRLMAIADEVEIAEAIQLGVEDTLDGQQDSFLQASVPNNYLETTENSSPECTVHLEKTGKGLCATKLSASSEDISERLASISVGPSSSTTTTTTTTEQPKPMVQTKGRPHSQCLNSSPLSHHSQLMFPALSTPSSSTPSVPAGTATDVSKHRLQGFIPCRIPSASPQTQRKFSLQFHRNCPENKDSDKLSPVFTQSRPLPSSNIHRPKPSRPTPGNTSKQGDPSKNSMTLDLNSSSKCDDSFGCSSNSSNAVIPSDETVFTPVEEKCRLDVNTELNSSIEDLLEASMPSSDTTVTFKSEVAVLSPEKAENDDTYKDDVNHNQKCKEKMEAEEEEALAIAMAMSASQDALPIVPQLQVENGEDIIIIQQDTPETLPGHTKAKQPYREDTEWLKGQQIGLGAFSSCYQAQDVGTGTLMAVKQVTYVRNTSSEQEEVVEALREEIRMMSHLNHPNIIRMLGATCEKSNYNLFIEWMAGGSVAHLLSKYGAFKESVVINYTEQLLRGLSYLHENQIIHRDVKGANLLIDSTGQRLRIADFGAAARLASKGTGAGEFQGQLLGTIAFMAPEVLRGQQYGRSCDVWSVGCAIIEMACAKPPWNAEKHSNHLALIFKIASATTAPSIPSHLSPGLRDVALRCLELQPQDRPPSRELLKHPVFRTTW
T2 sequence (Q02779 whole entry): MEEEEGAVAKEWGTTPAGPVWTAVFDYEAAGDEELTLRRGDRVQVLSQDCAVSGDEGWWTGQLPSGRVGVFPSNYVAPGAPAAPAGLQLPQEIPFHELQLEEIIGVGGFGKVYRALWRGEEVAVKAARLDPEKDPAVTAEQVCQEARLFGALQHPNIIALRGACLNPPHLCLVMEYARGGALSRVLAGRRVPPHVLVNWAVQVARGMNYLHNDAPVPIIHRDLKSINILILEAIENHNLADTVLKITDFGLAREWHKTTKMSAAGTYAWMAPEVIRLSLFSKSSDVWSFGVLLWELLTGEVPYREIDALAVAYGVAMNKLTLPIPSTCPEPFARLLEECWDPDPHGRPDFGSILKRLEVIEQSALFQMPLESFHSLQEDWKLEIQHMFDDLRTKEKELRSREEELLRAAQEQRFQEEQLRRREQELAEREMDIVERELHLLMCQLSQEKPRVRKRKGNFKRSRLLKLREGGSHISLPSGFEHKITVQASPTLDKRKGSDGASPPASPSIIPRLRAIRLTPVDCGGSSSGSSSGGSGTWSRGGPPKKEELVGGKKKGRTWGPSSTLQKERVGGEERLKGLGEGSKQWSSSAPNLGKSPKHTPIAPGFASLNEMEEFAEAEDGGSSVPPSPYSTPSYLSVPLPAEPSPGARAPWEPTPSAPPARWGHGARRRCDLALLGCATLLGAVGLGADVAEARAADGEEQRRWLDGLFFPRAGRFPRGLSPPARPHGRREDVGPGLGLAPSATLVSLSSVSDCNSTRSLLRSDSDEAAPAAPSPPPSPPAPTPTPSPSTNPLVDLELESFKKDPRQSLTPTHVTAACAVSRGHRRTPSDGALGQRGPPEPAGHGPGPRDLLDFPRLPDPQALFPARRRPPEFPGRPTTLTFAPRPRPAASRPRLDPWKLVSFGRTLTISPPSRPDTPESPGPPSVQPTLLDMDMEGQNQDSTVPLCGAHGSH
T4 sequence (Q13153 whole entry): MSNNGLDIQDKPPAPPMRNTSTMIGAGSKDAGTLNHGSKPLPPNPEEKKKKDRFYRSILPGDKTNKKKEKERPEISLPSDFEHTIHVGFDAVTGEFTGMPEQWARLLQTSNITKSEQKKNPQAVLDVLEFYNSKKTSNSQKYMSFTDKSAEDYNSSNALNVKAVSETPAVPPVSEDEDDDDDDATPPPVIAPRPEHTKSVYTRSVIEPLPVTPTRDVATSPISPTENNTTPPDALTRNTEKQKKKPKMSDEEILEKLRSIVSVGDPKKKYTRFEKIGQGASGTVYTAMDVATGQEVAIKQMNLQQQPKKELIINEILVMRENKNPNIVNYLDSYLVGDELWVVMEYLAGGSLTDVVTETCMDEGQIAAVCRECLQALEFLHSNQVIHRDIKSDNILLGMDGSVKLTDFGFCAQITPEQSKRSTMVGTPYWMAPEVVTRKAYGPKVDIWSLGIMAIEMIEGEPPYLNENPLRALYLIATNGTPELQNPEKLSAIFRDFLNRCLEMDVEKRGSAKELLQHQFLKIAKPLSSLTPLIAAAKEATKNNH

CCCS(=O)(=O)Nc1ccc(F)c(C(=O)c2c[nH]c3ncc(-c4ccc(Cl)cc4)cc23)c1F [vemurafenib]
IC50 (MINK (MINK1); estimated Kd, averaged pointwise estimates, transformed Hill equation, read-out: Calculated estimate of IC50): 14800 nM
remaining binding at 0.05 µM (MINK (MINK1)): 100%
remaining binding at 0.2 µM (MINK (MINK1)): 100%
remaining binding at 1 µM (MINK (MINK1)): 91%
remaining binding at 10 µM (MINK (MINK1)): 66%
remaining binding at 0.05 µM (MLK2 (MAP3K10)): 92%
remaining binding at 0.2 µM (MLK2 (MAP3K10)): 96%
remaining binding at 10 µM (MLK2 (MAP3K10)): 78%
NOXA induction at 24 hr post-UV irradiation (NOXA; NHEK): diminished
remaining binding at 0.05 µM (MAP3K15): 84%
remaining binding at 0.2 µM (MAP3K15): 100%
remaining binding at 1 µM (MAP3K15): 84%
remaining binding at 10 µM (MAP3K15): 91%
direct inhibition of JNK and p38 isoforms (JNK and p38 isoforms): not significantly inhibited
remaining binding at 0.05 µM (PAK1): 99%
remaining binding at 0.2 µM (PAK1): 98%
remaining binding at 1 µM (PAK1): 91%
remaining binding at 10 µM (PAK1): 46%
remaining binding at 0.05 µM (MAP3K1): 98%
remaining binding at 0.2 µM (MAP3K1): 84%
remaining binding at 1 µM (MAP3K1): 89%
remaining binding at 10 µM (MAP3K1): 81%
remaining binding at 0.05 µM (MAP3K2): 91%
remaining binding at 0.2 µM (MAP3K2): 91%
remaining binding at 1 µM (MAP3K2): 89%
remaining binding at 10 µM (MAP3K2): 83%
IC50 (BRK (PTK6)): 68 nM
remaining binding at 0.05 µM (BRK (PTK6)): 63%
remaining binding at 0.2 µM (BRK (PTK6)): 28%
remaining binding at 1 µM (BRK (PTK6)): 6.9%
remaining binding at 10 µM (BRK (PTK6)): 0.35%
IC50 (MLK1 (MAP3K9); ref Bollag et al., 2010): > 1000 nM

CCCS(=O)(=O)Nc1ccc(F)c(C(=O)c2c[nH]c3ncc(Cl)cc23)c1F [PLX4720]
remaining binding at 0.05 µM (MINK (MINK1)): 89%
remaining binding at 0.2 µM (MINK (MINK1)): 100%
remaining binding at 1 µM (MINK (MINK1)): 98%
remaining binding at 10 µM (MINK (MINK1)): 55%
remaining binding at 0.05 µM (MLK2 (MAP3K10)): 100%
remaining binding at 0.2 µM (MLK2 (MAP3K10)): 82%
remaining binding at 1 µM (MLK2 (MAP3K10); read-out: Percent control (1000 nM)): 100%
remaining binding at 10 µM (MLK2 (MAP3K10)): 76%
UV-induced NOXA expression (NOXA; cSCC and HaCaT cell lines): suppressed
remaining binding at 0.05 µM (MAP3K15): 94%
remaining binding at 0.2 µM (MAP3K15): 97%
remaining binding at 1 µM (MAP3K15): 91%
remaining binding at 10 µM (MAP3K15): 59%
direct inhibition of JNK and p38 isoforms (JNK and p38 isoforms): not significantly inhibited
remaining binding at 0.05 µM (PAK1): 93%
remaining binding at 0.2 µM (PAK1): 97%
remaining binding at 1 µM (PAK1): 83%
remaining binding at 10 µM (PAK1): 22%
remaining binding at 0.05 µM (MAP3K1): 96%
remaining binding at 0.2 µM (MAP3K1): 100%
remaining binding at 1 µM (MAP3K1): 92%
remaining binding at 10 µM (MAP3K1): 84%
remaining binding at 0.05 µM (MAP3K2): 100%
remaining binding at 0.2 µM (MAP3K2): 93%
remaining binding at 1 µM (MAP3K2): 87%
remaining binding at 10 µM (MAP3K2): 41%
IC50 (BRK (PTK6)): 30.4 nM
remaining binding at 0.05 µM (BRK (PTK6)): 47%
remaining binding at 0.2 µM (BRK (PTK6)): 14%
remaining binding at 1 µM (BRK (PTK6)): 2.4%
remaining binding at 10 µM (BRK (PTK6)): 0.2%
IC50 (MLK1 (MAP3K9); ref Tsai et al., 2008): > 5000 nM
